“Also recorded” adds a separate entry of the source. Like-named read-outs stand apart in the source and are kept apart here.
Columns and labels:
[1] = tested on: F. hepatica newly excysted juveniles (NEJs), Italian strain; assay: Ex vivo screen against newly excysted juveniles (NEJs), phenotype and motility scoring; type: cell-based, Fasciola hepatica; conditions: for Average motility of 25 NEJs with 95% CI, 24 hours / Average phenotype of 25 NEJs with 95% CI, 24 hours / Average motility of 25 NEJs with 95% CI, 48 hours / Average phenotype of 25 NEJs with 95% CI, 48 hours / Average motility of 25 NEJs with 95% CI, 72 hours / Average phenotype of 25 NEJs with 95% CI, 72 hours / Activity against NEJs (first screen), in words: 10 µM; for Average motility of 25 NEJs with 95% CI, 24 hours / Average motility of 25 NEJs with 95% CI, 48 hours / Average motility of 25 NEJs with 95% CI, 72 hours: motility score 1 good/normal to 5 no movement; for Average phenotype of 25 NEJs with 95% CI, 24 hours / Average phenotype of 25 NEJs with 95% CI, 48 hours / Average phenotype of 25 NEJs with 95% CI, 72 hours: ultrastructure score 1 normal to 6 dead or dissolved; for Activity against NEJs (first screen), in words: 72 h co-culture
Experimental: […] The NEJs were excysted from metacercariae and assayed at 10 μM (in 0.1% DMSO) final concentration alongside negative (0.1% DMSO) and positive (10 μM TCBZ, in 0.1% DMSO) controls as previously described. The MC and IVL compound series were screened separately.
The motility (1—good/normal; 2—moderate; 3—low; 4—very little; 5—no movement) and phenotypic (ultrastructural changes) scores were noted according to a previously described scoring matrix (Figure S1 and Table S2).

[2] = tested on: adult F. hepatica flukes (Italian strain); assay: Ex vivo dose response motility assay on adult liver flukes (Italian strain); type: cell-based, Fasciola hepatica; conditions: for Average motility of 3 parasites treated with 4.4 µM, 24 hours / Average motility of 3 parasites treated with 4.4 µM, 48 hours / Average motility of 3 parasites treated with 4.4 µM, 72 hours / Average motility of 3 parasites treated with 13.3 µM, 24 hours / Average motility of 3 parasites treated with 13.3 µM, 48 hours / Average motility of 3 parasites treated with 13.3 µM, 72 hours / Average motility of 3 parasites treated with 40 µM, 24 hours / Average motility of 3 parasites treated with 40 µM, 48 hours / Average motility of 3 parasites treated with 40 µM, 72 hours: adult flukes Italian strain, score 1 to 6; for EC50: adult flukes, motility
Experimental: The collection, ex vivo culturing and screening of adult liver fluke (Italian strain; n = 3/condition) was previously described. Dose response assays (40 µM, 13.3 µM and 4.4 µM) were conducted for MC014, MC042, MC035, MC055 and MC062 with motility scores recorded at 24, 48 and 72 h (Table S6).

[3] = tested on: wild strain adult F. hepatica; assay: Ex vivo motility assay on adult liver flukes (wild strain); type: cell-based, Fasciola hepatica; conditions: 40 µM; for Effect on wild strain adult fluke motility, in words: 72 h; for Average motility of 4 parasites with 95% CI at 72 hour time point: wild strain adult flukes, score 1 good/normal to 6 no movement or dead
Experimental: Due to the high number of active molecules and a shortage of Italian strain adult liver flukes, the eleven hit compounds were screened for 72 h at 40 µM (in 0.4% DMSO) on wild strain adult F. hepatica (n = 4/condition) of unknown provenance (Table S3). The protocol for culturing and scoring (motility) the activity of these compounds was previously described (1—good/normal; 2—moderate; 3—resting (less than 10 s pulses of body and head), 4—apathetic (less than 2 s pulses of body and head), 5—paralysis and 6–no movement or dead worms). Six compounds were deemed active in these assays and were selected for further screening.

[4] = tested on: Madin–Darby bovine kidney (MDBK) cells; assay: MTT cell viability assay on MDBK cells; type: cell-based
Experimental: MTT cell viability assays were performed on Madin–Darby bovine kidney (MDBK cells) for the five selected hederagenin derivatives (MC014, MC035, MC042, MC055 and MC062) using final concentrations of 100 μM, 75 μM, 50 μM, 25 μM, 10 μM, 5 μM and 1 μM (in 1% DMSO). Negative (1% v/v Triton X-100, Sigma-Aldrich, UK) and positive (1% v/v DMSO or media only) controls were included. The protocol was followed as previously described. Absolute EC50 values were calculated from the corrected absorbance of replicates by non-linear regression, after log transformation of concentrations and data normalization (where DMSO values represents 0% inhibition and TX-100 values represent 100% inhibition) using GrapPad Prism 8.

[5] = tested on: immature F. hepatica flukes (Italian strain); assay: Ex vivo motility assay on immature liver flukes (Italian strain), single concentration and dose response; type: cell-based, Fasciola hepatica; conditions: 40 µM; for Average motility of 4 parasites with 95% CI at 24 hour time point: score 1 normal to 5 no movement or death; for Effect on immature fluke motility, in words: by 72 h
Experimental: The six selected compounds (at 40 µM in 0.4% DMSO) were evaluated on immature flukes (n = 4/condition) at 24, 48 and 72 h (Table S4). The protocol for culturing and scoring (motility) of these life stages have been previously described. Due to restricted numbers of immature worms, a dose response assay was conducted only for MC042. Here, immature worms (n = 2/concentration tested) were screened against descending concentrations of MC042 (40 µM, 13.3 µM and 4.4 µM); motility scores were recorded at 24, 48 and 72 h (Table S5). The scoring pattern used is identical to that described for NEJs.

[6] = 48 h, immature flukes, score 1 to 5
[7] = 72 h, immature flukes, score 1 to 5

CC1(C)CC[C@]2(C(=O)O)CC[C@]3(C)C(=CC[C@@H]4[C@@]5(C)CC[C@@H]6OC(C)(C)OC[C@@]6(C)[C@@H]5CC[C@]43C)[C@@H]2C1 [MC014]
Average motility of 25 NEJs with 95% CI, 24 hours ([1]; 24 h): 5.00 (5.0;5.0)
Average phenotype of 25 NEJs with 95% CI, 24 hours ([1]; 24 h): 4.12 (3.5;4.6)
Average motility of 25 NEJs with 95% CI, 48 hours ([1]; 48 h): 5.00 (5.0;5.0)
Average phenotype of 25 NEJs with 95% CI, 48 hours ([1]; 48 h): 6.00 (6.0;6.0)
Average motility of 25 NEJs with 95% CI, 72 hours ([1]; 72 h): 5.00 (5.0;5.0)
Average phenotype of 25 NEJs with 95% CI, 72 hours ([1]; 72 h): 6.00 (6.0;6.0)
Activity against NEJs (first screen), in words [1]: maximal alterations to both phenotype/ultrastructure and motility
Average motility of 3 parasites treated with 4.4 µM, 24 hours [2]: 1.00 (1.0;1.0)
Average motility of 3 parasites treated with 4.4 µM, 48 hours [2]: 1.00 (1.0;1.0)
Average motility of 3 parasites treated with 4.4 µM, 72 hours ([2]; 72 h): 3.00 (1.8; 4.1)
Average motility of 3 parasites treated with 13.3 µM, 24 hours [2]: 1.33 (0.6;1.9)
Average motility of 3 parasites treated with 13.3 µM, 48 hours [2]: 1.66 (0.3;2.9)
Average motility of 3 parasites treated with 13.3 µM, 72 hours ([2]; 72 h): 3.33 (2.6;3.9)
Average motility of 3 parasites treated with 40 µM, 24 hours [2]: 3.33 (2.6;3.9)
Average motility of 3 parasites treated with 40 µM, 48 hours [2]: 4.00 (4.0;4.0)
Average motility of 3 parasites treated with 40 µM, 72 hours ([2]; 72 h): 5.33 (4.0;6.6)
EC50 ([2]; 24 h exposure, read-out: EC50 with 95% CI on Adult Flukes (motility), 24 hour): 13.5 µM
EC50 ([2]; 72 h, read-out: EC50 with 95% CI on Adult Flukes (motility), 72 hour): 9.3 µM
Effect on adult fluke (Italian strain) movement, in words ([2]; dose response, MC042 statement at 40 μM after 72 h): Decreased movement
Effect on wild strain adult fluke motility, in words [3]: no motility after 72 h; also recorded: performed very well
Average motility of 4 parasites with 95% CI at 72 hour time point [3]: 6.00 (6.0;6.0)
CC50 with 95% CI on MDBK cells (cytotoxicity) ([4]; MDBK cells, MTT, 24 h exposure): Undefined ^c
Effect on MDBK cell proliferation, in words ([4]; dose response titration up to 100 μM): modest proliferative effect
Cytotoxicity on MDBK cells, in words ([4]; highest concentration tested 100 μM): not cytotoxic even at the highest concentration tested
Average motility of 4 parasites with 95% CI at 24 hour time point ([5]; 24 h, immature flukes): 5.00 (5.0;5.0)
Average motility of 4 parasites with 95% CI at 48 hour time point [5, 6]: 5.00 (5.0;5.0)
Average motility of 4 parasites with 95% CI at 72 hour time point [5, 7]: 5.00 (5.0;5.0)
Effect on immature fluke motility, in words [5]: paralyzed the assayed immature flukes

CC(=O)OC[C@@]1(C)C2CC[C@]3(C)C(CC=C4C5CC(C)(C)CC[C@]5(NC(=O)N5CCCC5)CC[C@]43C)[C@@]2(C)CC[C@@H]1O (stereo partly drawn) [MC057, ((3S,4R,6aR,6bS,8aS,14bR)-3-Hydroxy-4,6a,6b,11,11,14b-hexamethyl-8a-(pyrrolidine-1-carbox-amido)-1,2,3,4,4a,5,6,6a,6b,7,8,8a,9,10,11,12,12a,14,14a, 14b-icosahydropicen-4-yl)-methyl acetate]
Average motility of 25 NEJs with 95% CI, 24 hours ([1]; 24 h): 5.00 (5.0;5.0)
Average phenotype of 25 NEJs with 95% CI, 24 hours ([1]; 24 h): 6.00 (6.0;6.0)
Average motility of 25 NEJs with 95% CI, 48 hours ([1]; 48 h): 5.00 (5.0;5.0)
Average phenotype of 25 NEJs with 95% CI, 48 hours ([1]; 48 h): 6.00 (6.0;6.0)
Average motility of 25 NEJs with 95% CI, 72 hours ([1]; 72 h): 5.00 (5.0;5.0)
Average phenotype of 25 NEJs with 95% CI, 72 hours ([1]; 72 h): 6.00 (6.0;6.0)
Activity against NEJs (first screen), in words [1]: maximal alterations to both phenotype/ultrastructure and motility
Effect on wild strain adult fluke motility, in words [3]: partial paralysis
Average motility of 4 parasites with 95% CI at 72 hour time point [3]: 5.00 (5.0;5.0)
Average motility of 4 parasites with 95% CI at 24 hour time point ([5]; 24 h, immature flukes): 3.50 (2.5;4.4)
Average motility of 4 parasites with 95% CI at 48 hour time point [5, 6]: 4.25 (3.3;5.1)
Average motility of 4 parasites with 95% CI at 72 hour time point [5, 7]: 4.50 (3.5;5.4)
Effect on immature fluke motility, in words [5]: least active in this series

CSc1nc2cc(Cl)c(Oc3cccc(Cl)c3Cl)cc2[nH]1 [Triclabendazole, reference compound]
Average motility of NEJs with 95% CI, 24 hours (positive control) ([1]; 40µM, 24 h, 50 NEJs, score 1 to 5): 5.00 (5.0;5.0)
Average phenotype of NEJs with 95% CI, 24 hours (positive control) ([1]; 40µM, 24 h, 50 NEJs, score 1 to 6): 6.00 (6.0;6.0)
Average motility of NEJs with 95% CI, 48 hours (positive control) ([1]; 40µM, 48 h, 50 NEJs, score 1 to 5): 5.00 (5.0;5.0)
Average phenotype of NEJs with 95% CI, 48 hours (positive control) ([1]; 40µM, 48 h, 50 NEJs, score 1 to 6): 6.00 (6.0;6.0)
Average motility of NEJs with 95% CI, 72 hours (positive control) ([1]; 40µM, 72 h, 50 NEJs, score 1 to 5): 5.00 (5.0;5.0)
Average phenotype of NEJs with 95% CI, 72 hours (positive control) ([1]; 40µM, 72 h, 50 NEJs, score 1 to 6): 6.00 (6.0;6.0)
Average motility of 3 parasites treated with 4.4 µM, 24 hours [2]: 1.00 (1.0; 1.0)
Average motility of 3 parasites treated with 4.4 µM, 48 hours [2]: 1.00 (1.0; 1.0)
Average motility of 3 parasites treated with 4.4 µM, 72 hours ([2]; 72 h): 1.00 (1.0; 1.0)
Average motility of 3 parasites treated with 13.3 µM, 24 hours [2]: 1.00 (1.0;1.0)
Average motility of 3 parasites treated with 13.3 µM, 48 hours [2]: 1.33 (0.6;1.9)
Average motility of 3 parasites treated with 13.3 µM, 72 hours ([2]; 72 h): 2.00 (0.8; 3.1)
Average motility of 3 parasites treated with 40 µM, 24 hours [2]: 2.33 (1.6; 2.9)
Average motility of 3 parasites treated with 40 µM, 48 hours [2]: 5.66 (5.0; 6.3)
Average motility of 3 parasites treated with 40 µM, 72 hours ([2]; 72 h): 6.00 (6.0; 6.0)
Average motility of 4 parasites with 95% CI at 72 hour time point [3]: 6.00 (6.0;6.0)
Average motility of 2 parasites treated with 40 µM, 24 hours ([5]; 24 h, immature flukes, dose response, score 1 to 5): 5.00 (5.0; 5.0)
Average motility of 4 parasites with 95% CI at 24 hour time point ([5]; 24 h, immature flukes): 5.0 (5.0,5.0)
Average motility of 2 parasites treated with 40 µM, 48 hours ([5]; 48 h, immature flukes, dose response, score 1 to 5): 5.00 (5.0; 5.0)
Average motility of 4 parasites with 95% CI at 48 hour time point [5, 6]: 5.0 (5.0,5.0)
Average motility of 2 parasites treated with 40 µM, 72 hours ([5]; 72 h, immature flukes, dose response, score 1 to 5): 5.00 (5.0; 5.0)
Average motility of 4 parasites with 95% CI at 72 hour time point [5, 7]: 5.0 (5.0,5.0)
Effect on immature fluke motility, in words [5]: completely immobile by 72 h

— article PMC10385850, “Modified Hederagenin Derivatives Demonstrate Ex Vivo Anthelmintic Activity against Fasciola hepatica” (Pharmaceutics, 2023)
